Results taken from patent US4444754A, “Derivatives of clavulanic acid, a process for their preparation and their use” (Beecham Group Limited, priority 1978, dated 1984).
≈ marks a conversion by molar mass, not a printed value. Like-named read-outs stand apart in the source and are kept apart here. Blank lines part the entries; values can stand above or below the compound they belong to.

Assays:
[1] = system: Kleb. aerogenes A; test: MIC in DST agar containing 5% blood; format: cell-based; conditions: Klebsiella aerogenes
From the text: (§1) The following MIC values (μg/ml) for the compound of Example 2 were obtained in DST agar containing 5% blood: […]

[2] = system: Staph. aureus Oxford; test: MIC in DST agar containing 5% blood; format: cell-based; conditions: Staphylococcus aureus
From the text: as §1

[3] = system: Prot. mirabilis C977; test: MIC in DST agar containing 5% blood; format: cell-based; conditions: Proteus mirabilis
From the text: as §1

[4] = system: E. coli 0111; test: MIC in DST agar containing 5% blood; format: cell-based; conditions: Escherichia coli
From the text: as §1

[5] = system: E. coli ESS; test: MIC in DST agar containing 5% blood; format: cell-based; conditions: Escherichia coli
From the text: as §1

[6] = system: Strep. pneumoniae; test: MIC in DST agar containing 5% blood; format: cell-based; conditions: Streptococcus pneumoniae
From the text: as §1

[7] = system: Strep. faecalis I; test: MIC in DST agar containing 5% blood; format: cell-based; conditions: Enterococcus faecalis
From the text: as §1

[8] = system: Staph. aureus 1517; test: MIC in DST agar containing 5% blood; format: cell-based; conditions: Staphylococcus aureus
From the text: as §1

[9] = system: Staph. aureus Russell; test: MIC in DST agar containing 5% blood; format: cell-based; conditions: Staphylococcus aureus
From the text: as §1

[10] = system: Strep. pyogenes CN1O; test: MIC in DST agar containing 5% blood; format: cell-based; conditions: Streptococcus pyogenes
From the text: as §1

[11] = system: E. coli JT39 (R+); test: MIC in DST agar containing 5% blood; format: cell-based; conditions: Escherichia coli
From the text: as §1

[12] = system: Staphylococcus aureus Smith; test: in-vivo anti-bacterial activity in mice with intraperitoneal Staphylococcus aureus Smith infection; conditions: intraperitoneal S. aureus Smith; for ED50: Staphylococcus aureus, sc, sub-cutaneous dosing 1 and 5 hours post infection
Experimental: (§2) When tested in mice suffering from an intraperitoneal infection of Staphylococcus aureus Smith, the following results where obtained with sub-cutaneous dosing 1 and 5 hours post infection: […]

[13] = overt drug induced toxicity in infected mice at the therapeutic dose; format: in vivo; conditions: sub-cutaneous
Experimental: as §2

[14] = system: Klebsiella aerogenes E70; test: in vitro MIC of ampicillin with and without the compound (synergy); format: cell-based; conditions: without the compound of Example 2, read-out: in vitro MIC of ampicillin alone
[15] = system: E. coli E96 (Rtem); test: in-vivo test in mice infected intraperitoneally with E. coli E96 (Rtem), amoxycillin synergy; conditions: Escherichia coli, sc, read-out: CD50 of amoxycillin alone
[16] = read-out: CD50 (the source's name)

SMILES: O=C(O)[C@H]1/C(=C/CN2CCc3ccccc3C2)O[C@@H]2CC(=O)N21 [Example 2, 9-N-(1,2,3,4-Tetrahydroisoquinolyl)deoxyclavulanic acid]
MIC [1]: 20 µg/mL (≈ 63.6 µM)
MIC [2]: ≤ 1.25 µg/mL
MIC [3]: > 80 µg/mL
MIC [4]: 80 µg/mL (≈ 255 µM)
MIC [5]: 10 µg/mL (≈ 31.8 µM)
MIC [6]: ≤ 1.25 µg/mL
MIC [7]: 80 µg/mL (≈ 255 µM)
MIC [8]: 20 µg/mL (≈ 63.6 µM)
MIC [9]: ≤ 1.25 µg/mL
MIC [10]: ≤ 1.25 µg/mL
MIC [11]: 40 µg/mL (≈ 127 µM)
ED50 [12, 16]: 3.5 mg/kg
anti-bacterial activity in-vivo ([12]; result in words): good anti-bacterial activity in-vivo
overt drug induced toxicity [13]: No overt drug induced toxicity was observed

MIC [14]: 125 µg/mL
SMILES: CC1(C)S[C@@H]2[C@H](NC(=O)[C@H](N)c3ccccc3)C(=O)N2[C@H]1C(=O)O [ampicillin]

SMILES: O=C(O)[C@H]1/C(=C/CO)O[C@@H]2CC(=O)N21 [Clavulanic acid sodium, reference compound]
ED50 ([12]; range of results in various tests, read-out: CD50, range of results in various tests): 12 to 27 mg/kg
ED50 [12, 16]: 13 mg/kg

SMILES: CC1(C)S[C@@H]2[C@H](NC(=O)[C@H](N)c3ccc(O)cc3)C(=O)N2[C@H]1C(=O)O [amoxycillin]
ED50 [15]: > 1000 mg/kg
